# Reference: publication PMC12040169 (PLOS Biology, 2025)
# Assay: in vitro
# Conditions: human, hela cells, % viability
row,SMILES,"viability at 28.5 h, 10 µM"
1,O=C(Nc1cc2nn(-c3ccccc3)nc2cc1Cl)c1ccc(-c2cccc([N+](=O)[O-])c2)o1 [CBK266271],94%
2,Cc1sc(NC(=S)NC(=O)c2ccco2)c(C(N)=O)c1C [CBK266272],98.9%
3,O=C(Nc1cccc(C(F)(F)F)c1)c1ccc(N2CCNCC2)c([N+](=O)[O-])c1 [CBK266274],100%
4,COc1ccc(Cl)cc1C(=O)O/N=C(\N)Cc1cccc2ccccc12 [CBK266275],98.3%
5,O=C(CSc1nnc(CCc2ccccc2)n1-c1ccc(Cl)cc1)c1ccccc1 [CBK266277],88.9%
6,O=C(Nc1ccccc1-c1nc2ccccc2s1)c1cc(Br)ccc1Cl [CBK266280],94.9%
7,Cc1ccc2oc(C(=O)Nc3sc4c(c3C(=O)NCC3CCCO3)CCC4)c(C)c2c1 (stereo not drawn) [CBK266282],111%
8,Cc1nc(S)nc(O)c1Cc1ccc(C(=O)O)o1 [CBK266284],104%
9,Cc1nnc(N2C(=O)c3oc4ccccc4c(=O)c3C2c2ccc(OCc3ccccc3)cc2)s1 (stereo not drawn) [CBK266287],94.9%
10,N#C/C(=C\c1ccc(-c2ccc(S(N)(=O)=O)cc2)o1)c1nc2ncc(Br)cc2[nH]1 [CBK266288],97.6%
11,CCn1c(SCC(=O)N2c3ccccc3Sc3ccccc32)nnc1C(C)Oc1ccccc1 (stereo not drawn) [CBK266290],105%
12,c1csc(CSc2nnc3sc4ccccc4n23)c1 [CBK266291],87.9%
13,N#C/C(=C\c1ccc(N2CCOCC2)cc1)c1nc2ncc(Br)cc2[nH]1 [CBK266294],89.4%
14,N#C/C(=C\c1cn(-c2ccccc2)nc1-c1cccc(S(=O)(=O)N2CCCC2)c1)c1nc2ccccc2c(=O)[nH]1 [CBK266296],91.9%
15,Cc1cccc(OCC(=O)NC(=S)Nc2ccccc2N2CCCCC2)c1C [CBK266298],105%
16,CC(Oc1ccccc1)c1nnc(SCC(=O)Nc2ccc(Br)c(Cl)c2)n1C (stereo not drawn) [CBK266299],113%
17,Cc1nnc(SCc2nnnn2-c2ccccc2)nc1O [CBK266302],101%
18,COc1nc(NCCc2ccc(OC)c(OC)c2)nc(OC)n1 [CBK266304],94.4%
19,Cc1cc2oc(C(=O)Nc3nc(-c4ccc(S(=O)(=O)N5CCCC5)cc4)cs3)c(C)c2cc1C [CBK266309],89.5%
20,Cc1ccc(S(=O)(=O)N2Cc3ccccc3CC2C(=O)Nc2sc3c(c2C#N)CCCC3)cc1 (stereo not drawn) [CBK266313],97.9%

row,SMILES,"viability at 28.5 h, 10 µM"
1,CC1CCN(S(=O)(=O)c2ccc3c(c2)oc(=O)c2cc(S(=O)(=O)N4CCC(C)CC4)ccc23)CC1 [CBK266314],100%
2,COc1cc(C(=O)N(Cc2ccco2)c2ccc(O)cc2)cc(OC)c1OC [CBK266315],102%
3,COc1cccc(C(=O)Nc2ccc(NC(=O)C3CC=CCC3C(=O)O)cc2)c1 (stereo not drawn) [CBK266316],107%
4,Cc1cc(C)nc(NC(=N)NCCc2c[nH]c3ccccc23)n1 [CBK266321],70.2%
5,CCOc1ccccc1Cn1c2ccccc2c2nc3ccccc3nc21 [CBK266323],101%
6,COC(=O)c1ccccc1NC(=O)CSc1nnc(-c2ccncc2)[nH]1 [CBK266324],96.4%
7,O=C(CSc1nnc(-c2cccnc2)o1)c1ccc(Oc2ccccc2)cc1 [CBK266327],88.1%
8,OCCCNC(c1ccccc1)c1ccc(O)cc1 (stereo not drawn) [CBK266329],97.2%
9,O=C(NCC1CCCO1)c1ccc(NC(=O)C2CC=CCC2C(=O)O)cc1 (stereo not drawn) [CBK266335],95%
10,N=c1n(CCN2CCCCC2)c2ccccc2n1CC(O)COc1ccc(Cl)cc1Cl (stereo not drawn) [CBK266336C],31%
11,COC(=O)c1ccccc1NC(=O)CSc1nnc(-c2ccccc2)[nH]1 [CBK266338],96.7%
12,Cc1[nH]c2ccccc2c1C(=O)CSc1nc2ccccc2o1 [CBK266339],100%
13,O=C(CSc1ncccc1C(=O)O)Nc1ccc(Oc2ccccc2)cc1 [CBK266340],106%
14,CCOc1ccc(S(=O)(=O)N2CCN(S(=O)(=O)c3cccc([N+](=O)[O-])c3)CC2)cc1 [CBK266341],95.9%
15,O=[N+]([O-])c1ccc(NCCNc2nc3ccccc3nc2N2CCOCC2)cc1 [CBK266342],107%
16,COc1ccc2c(c1)c(=O)oc1cc(OCC(=O)N3CCc4ccccc4C3)ccc12 [CBK266346],110%
17,Cc1ccnc(SCC(=O)Nc2sc3c(c2C(=O)Nc2ccccc2)CCCC3)n1 [CBK266348],106%
18,CC(=O)Nc1ccc(C(=O)CSc2nnc(-c3ccncc3)o2)cc1 [CBK266349],105%
19,Cc1ccc(S(=O)(=O)NC(C)(C)CSc2nnc(N)s2)cc1 [CBK266350],97.1%
20,Cc1cc2oc(C(=O)Nc3sc4c(c3C(=O)NC3CCS(=O)(=O)C3)CCC(C)C4)c(C)c2cc1C (stereo not drawn) [CBK266351],92.2%

row,SMILES,"viability at 28.5 h, 10 µM"
1,O=C(O)c1ccc(CSc2nnc(-c3ccncc3)o2)cc1 [CBK266352],98.5%
2,O=C(NC1=NC2CCCCC2N1)c1ccccc1 (stereo not drawn) [CBK266354],103%
3,O=C1c2ccccc2C(=O)N1CCc1nc2ccccc2c(=O)n1-c1nc2ccccc2s1 [CBK266358],122%
4,Cc1ccc(S(=O)(=O)NC(C)(C)CSc2ccccn2)cc1 [CBK266360],86.1%
5,COc1ccc(S(=O)(=O)N2Cc3ccccc3CC2C(=O)Nc2sc3c(c2C#N)CCCC3)cc1 (stereo not drawn) [CBK266363],116%
6,Cc1cccc(-n2c(CCc3ccccc3)nnc2SCC(=O)c2ccccc2)c1 [CBK266369],94%
7,CC1CCc2c(sc(NC(=S)NC(=O)c3ccc4c(c3)OCCO4)c2C(N)=O)C1 (stereo not drawn) [CBK266370],101%
8,COc1ccccc1NC(=O)CCSc1nc(C)cc(C)n1 [CBK266371],103%
9,Nc1nnc(SC2c3cccc4cccc(c34)C2NS(=O)(=O)c2ccc(Cl)cc2)s1 (stereo not drawn) [CBK266373],99.7%
10,N#Cc1c(NC(=O)CSc2nnc(-c3ccncc3)o2)sc2c1CCCC2 [CBK266374],99.2%
11,Cc1ccc(OCC(O)Cn2c(=N)n(CCN3CCCCC3)c3ccccc32)cc1 (stereo not drawn) [CBK266375C],98.9%
12,CS(=O)(=O)CCC(C(=O)O)N1C(=O)c2ccc(Oc3ccc(Cl)cc3)cc2C1=O (stereo not drawn) [CBK266377],92%
13,O=C(Nc1sc2c(c1C(=O)NCCc1ccccc1)CCC2)c1sc2ccccc2c1Cl [CBK266379],105%
14,Cn1c(/C(C#N)=C\c2ccc(-c3ccc(S(N)(=O)=O)cc3)o2)nc2ccccc21 [CBK266380],95%
15,O=C(CC1Nc2ccccc2NC1=O)Nc1ccc(F)c(Cl)c1 (stereo not drawn) [CBK266381],97%
16,Cc1cc(C)cc(NC(=O)CC2Sc3ccccc3NC2=O)c1 (stereo not drawn) [CBK266384],94%
17,COc1ccc(Cc2nc3ccccc3n2CCc2ccccc2)cc1 [CBK266385],95.2%
18,O=C(CSc1nnc(-c2ccco2)o1)c1ccc2c(c1)OCCO2 [CBK266387],105%

# Same assay, conditions: human, hela cells, % viability, bulk resorufin, single well
row,SMILES,"viability at 28.5 h, 10 µM"
1,Cc1ccccc1N1C(=O)NC(=O)C(CCc2ccncc2)(Cc2ccc3c(c2)OCO3)C1=O (stereo not drawn) [CBK266289],92%
2,O=C1NC(=O)C(CCc2ccncc2)(Cc2ccc3c(c2)OCO3)C(=O)N1CCc1ccccc1 (stereo not drawn) [CBK266307],105%
